In patent US20240358693A1, “METHODS OF TREATING PAIN” (Aisa Pharma, Inc., priority 2023, published 2024):

Test system: participants with SSc-RP
Experiment: Scleroderma Health Assessment Questionnaire (SHAQ): disability indices and visual analog scales
Type: in vivo, human
Settings: Part A, sensitivity analysis
Method in brief: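 Participants with SSc-RP completed the SHAQ at screening and each in-clinic visit. Standard and alternative disability indices (eight categories, 0–3; standard adjusts for aids/assistance) plus Raynaud's VAS on interference over the past 7 days. Reported as absolute change from baseline to end of each dosing period.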

[1] = PP Population, cilnidipine 10 mg and/or tadalafil 5 mg as labelled
[2] = PP Population, cilnidipine 20 mg, plus tadalafil 5 mg where labelled
[3] = PP Population, pooled cilnidipine 10 mg and 20 mg arms (plus tadalafil 5 mg where labelled)
[4] = Pooled Cilnidipine 10 mg and Cilnidipine 10 mg + Tadalafil 5 mg (N = 9), Modified ITT

COCCOC(=O)C1=C(C)NC(C)=C(C(=O)OC/C=C/c2ccccc2)C1c1cccc([N+](=O)[O-])c1 (stereo not drawn) [Cilnidipine, cilnidipine]
SHAQ Visual Analogue Scale - Intestinal Problems: Change from Baseline (Day 12), Median [1]: −1.550 | SHAQ Visual Analogue Scale - Intestinal Problems: In-Clinic Visit (Day 12), Mean [1]: 1.100 | SHAQ Visual Analogue Scale - Intestinal Problems: In-Clinic Visit (Day 12), Median [1]: 0.300 | SHAQ Visual Analogue Scale - Intestinal Problems: Percent Change from Baseline (Day 12), Mean [1]: −77.37% | SHAQ Visual Analogue Scale - Intestinal Problems: Percent Change from Baseline (Day 12), Median [1]: −88.00% | SHAQ Visual Analogue Scale - Overall Disease Severity: Baseline, Mean [1]: 2.725 | SHAQ Visual Analogue Scale - Overall Disease Severity: Baseline, Median [1]: 1.900 | SHAQ Visual Analogue Scale - Overall Disease Severity: Change from Baseline (Day 12), Mean [1]: −0.900 | SHAQ Visual Analogue Scale - Overall Disease Severity: Change from Baseline (Day 12), Median [1]: −0.950 | SHAQ Visual Analogue Scale - Overall Disease Severity: In-Clinic Visit (Day 12), Mean [1]: 1.825 | SHAQ Visual Analogue Scale - Overall Disease Severity: In-Clinic Visit (Day 12), Median [1]: 1.050 | SHAQ Visual Analogue Scale - Overall Disease Severity: Percent Change from Baseline (Day 12), Mean [1]: −56.96% | SHAQ Visual Analogue Scale - Overall Disease Severity: Percent Change from Baseline (Day 12), Median [1]: −44.12% | SHAQ Visual Analogue Scale - Raynaud's: Baseline, Mean [1]: 1.600 | SHAQ Visual Analogue Scale - Raynaud's: Baseline, Median [1]: 1.000 | SHAQ Visual Analogue Scale - Raynaud's: Change from Baseline (Day 12), Mean [1]: 0.325 | SHAQ Visual Analogue Scale - Raynaud's: Change from Baseline (Day 12), Median [1]: 0.350 | SHAQ Visual Analogue Scale - Raynaud's: In-Clinic Visit (Day 12), Mean [1]: 1.925 | SHAQ Visual Analogue Scale - Raynaud's: In-Clinic Visit (Day 12), Median [1]: 1.700 | SHAQ Visual Analogue Scale - Raynaud's: Percent Change from Baseline (Day 12), Mean [1]: 11.36% | SHAQ Visual Analogue Scale - Raynaud's: Percent Change from Baseline (Day 12), Median [1]: −2.27% | SHAQ Visual Analogue Scale - Breathing Problems: Baseline, Mean [2]: 1.325 | SHAQ Visual Analogue Scale - Breathing Problems: Baseline, Median [2]: 1.550 | SHAQ Visual Analogue Scale - Breathing Problems: Change from Baseline (Day 12), Mean [2]: −0.475 | SHAQ Visual Analogue Scale - Breathing Problems: Change from Baseline (Day 12), Median [2]: −0.250 | SHAQ Visual Analogue Scale - Breathing Problems: In-Clinic Visit (Day 12), Mean [2]: 0.850 | SHAQ Visual Analogue Scale - Breathing Problems: In-Clinic Visit (Day 12), Median [2]: 0.450 | SHAQ Visual Analogue Scale - Breathing Problems: Percent Change from Baseline (Day 12), Mean [2]: 3.73% | SHAQ Visual Analogue Scale - Breathing Problems: Percent Change from Baseline (Day 12), Median [2]: −17.54% | SHAQ Visual Analogue Scale - Finger Ulcers: Baseline, Mean [2]: 1.800 | SHAQ Visual Analogue Scale - Finger Ulcers: Baseline, Median [2]: 0.300 | SHAQ Visual Analogue Scale - Finger Ulcers: Change from Baseline (Day 12), Mean [2]: −0.933 | SHAQ Visual Analogue Scale - Finger Ulcers: Change from Baseline (Day 12), Median [2]: 0.000 | SHAQ Visual Analogue Scale - Finger Ulcers: In-Clinic Visit (Day 12), Mean [2]: 0.650 | SHAQ Visual Analogue Scale - Finger Ulcers: In-Clinic Visit (Day 12), Median [2]: 0.350 | SHAQ Visual Analogue Scale - Finger Ulcers: Percent Change from Baseline (Day 12), Mean [2]: 35.29% | SHAQ Visual Analogue Scale - Finger Ulcers: Percent Change from Baseline (Day 12), Median [2]: 35.29% | SHAQ Visual Analogue Scale - Intestinal Problems: Baseline, Mean [2]: 0.700 | SHAQ Visual Analogue Scale - Intestinal Problems: Baseline, Median [2]: 0.650 | SHAQ Visual Analogue Scale - Intestinal Problems: Change from Baseline (Day 12), Mean [2]: 0.150 | SHAQ Visual Analogue Scale - Intestinal Problems: Change from Baseline (Day 12), Median [2]: 0.150 | SHAQ Visual Analogue Scale - Intestinal Problems: In-Clinic Visit (Day 12), Mean [2]: 0.850 | SHAQ Visual Analogue Scale - Intestinal Problems: In-Clinic Visit (Day 12), Median [2]: 0.650 | SHAQ Visual Analogue Scale - Intestinal Problems: Percent Change from Baseline (Day 12), Mean [2]: −10.00% | SHAQ Visual Analogue Scale - Intestinal Problems: Percent Change from Baseline (Day 12), Median [2]: 30.00% | SHAQ Visual Analogue Scale - Overall Disease Severity: Baseline, Mean [2]: 3.125 | SHAQ Visual Analogue Scale - Overall Disease Severity: Baseline, Median [2]: 2.950 | SHAQ Visual Analogue Scale - Overall Disease Severity: Change from Baseline (Day 12), Mean [2]: −2.000 | SHAQ Visual Analogue Scale - Overall Disease Severity: Change from Baseline (Day 12), Median [2]: −1.700 | SHAQ Visual Analogue Scale - Overall Disease Severity: In-Clinic Visit (Day 12), Mean [2]: 1.125 | SHAQ Visual Analogue Scale - Overall Disease Severity: In-Clinic Visit (Day 12), Median [2]: 1.300 | SHAQ Visual Analogue Scale - Overall Disease Severity: Percent Change from Baseline (Day 12), Mean [2]: −64.20% | SHAQ Visual Analogue Scale - Overall Disease Severity: Percent Change from Baseline (Day 12), Median [2]: −64.44% | SHAQ Visual Analogue Scale - Raynaud's: Baseline, Mean [2]: 3.075 | SHAQ Visual Analogue Scale - Raynaud's: Baseline, Median [2]: 3.000 | SHAQ Visual Analogue Scale - Raynaud's: Change from Baseline (Day 12), Mean [2]: −1.200 | SHAQ Visual Analogue Scale - Raynaud's: Change from Baseline (Day 12), Median [2]: −1.050 | SHAQ Visual Analogue Scale - Raynaud's: In-Clinic Visit (Day 12), Mean [2]: 1.875 | SHAQ Visual Analogue Scale - Raynaud's: In-Clinic Visit (Day 12), Median [2]: 1.250 | SHAQ Visual Analogue Scale - Raynaud's: Percent Change from Baseline (Day 12), Mean [2]: −41.11% | SHAQ Visual Analogue Scale - Raynaud's: Percent Change from Baseline (Day 12), Median [2]: −38.67% | SHAQ Alternative Disability Index: Baseline, Mean [3]: 0.359 | SHAQ Alternative Disability Index: Baseline, Median [3]: 0.250 | SHAQ Alternative Disability Index: Change from Baseline (Day 12), Mean [3]: 0.031 | SHAQ Alternative Disability Index: Change from Baseline (Day 12), Median [3]: 0.000 | SHAQ Alternative Disability Index: In-Clinic Visit (Day 12), Mean [3]: 0.391 | SHAQ Alternative Disability Index: In-Clinic Visit (Day 12), Median [3]: 0.188 | SHAQ Alternative Disability Index: Percent Change from Baseline (Day 12), Mean [3]: 9.68% | SHAQ Alternative Disability Index: Percent Change from Baseline (Day 12), Median [3]: −11.11% | SHAQ Standard Disability Index: Baseline, Mean [4]: 0.597 | SHAQ Standard Disability Index: Baseline, Median [4]: 0.500 | SHAQ Standard Disability Index: Change from Baseline, Mean [4]: −0.021 | SHAQ Standard Disability Index: Change from Baseline, Median [4]: 0.000 | SHAQ Standard Disability Index: Day 12, Mean [4]: 0.576 | SHAQ Standard Disability Index: Day 12, Median [4]: 0.375 | SHAQ Standard Disability Index: Percent Change from Baseline, Mean [4]: 7.50% | SHAQ Standard Disability Index: Percent Change from Baseline, Median [4]: 0.00% | SHAQ VAS Breathing Problems: Baseline, Mean [4]: 1.511 | SHAQ VAS Breathing Problems: Baseline, Median [4]: 0.800 | SHAQ VAS Breathing Problems: Change from Baseline, Mean [4]: −0.175 | SHAQ VAS Breathing Problems: Change from Baseline, Median [4]: 0.000 | SHAQ VAS Breathing Problems: Day 12, Mean [4]: 1.375 | SHAQ VAS Breathing Problems: Day 12, Median [4]: 0.000 | SHAQ VAS Breathing Problems: Percent Change from Baseline, Mean [4]: −26.05% | SHAQ VAS Breathing Problems: Percent Change from Baseline, Median [4]: −21.33% | SHAQ VAS Finger Ulcers: Baseline, Mean [4]: 0.656 | SHAQ VAS Finger Ulcers: Baseline, Median [4]: 0.200 | SHAQ VAS Finger Ulcers: Change from Baseline, Mean [4]: −0.267 | SHAQ VAS Finger Ulcers: Change from Baseline, Median [4]: −0.100 | SHAQ VAS Finger Ulcers: Day 12, Mean [4]: 0.389 | SHAQ VAS Finger Ulcers: Day 12, Median [4]: 0.000 | SHAQ VAS Finger Ulcers: Percent Change from Baseline, Mean [4]: −46.06% | SHAQ VAS Finger Ulcers: Percent Change from Baseline, Median [4]: −31.94% | SHAQ VAS Intestinal Problems: Baseline, Mean [4]: 2.444 | SHAQ VAS Intestinal Problems: Baseline, Median [4]: 1.100 | SHAQ VAS Intestinal Problems: Change from Baseline, Mean [4]: −1.228 | SHAQ VAS Intestinal Problems: Change from Baseline, Median [4]: −0.250 | SHAQ VAS Intestinal Problems: Day 12, Mean [4]: 1.217 | SHAQ VAS Intestinal Problems: Day 12, Median [4]: 0.700 | SHAQ VAS Intestinal Problems: Percent Change from Baseline, Mean [4]: −27.93% | SHAQ VAS Intestinal Problems: Percent Change from Baseline, Median [4]: −54.13% | SHAQ VAS Overall Disease Severity: Baseline, Mean [4]: 3.044 | SHAQ VAS Overall Disease Severity: Baseline, Median [4]: 1.900 | SHAQ VAS Overall Disease Severity: Change from Baseline, Mean [4]: −0.606 | SHAQ VAS Overall Disease Severity: Change from Baseline, Median [4]: −0.700 | SHAQ VAS Overall Disease Severity: Day 12, Mean [4]: 2.439 | SHAQ VAS Overall Disease Severity: Day 12, Median [4]: 1.900 | SHAQ VAS Overall Disease Severity: Percent Change from Baseline, Mean [4]: −24.68% | SHAQ VAS Overall Disease Severity: Percent Change from Baseline, Median [4]: −30.93% | SHAQ VAS Pain: Baseline, Mean [4]: 3.278 | SHAQ VAS Pain: Baseline, Median [4]: 3.100 | SHAQ VAS Pain: Change from Baseline, Mean [4]: −0.633 | SHAQ VAS Pain: Change from Baseline, Median [4]: −0.700 | SHAQ VAS Pain: Day 12, Mean [4]: 2.644 | SHAQ VAS Pain: Day 12, Median [4]: 2.900 | SHAQ VAS Pain: Percent Change from Baseline, Mean [4]: −20.07% | SHAQ VAS Pain: Percent Change from Baseline, Median [4]: −21.87% | SHAQ VAS Raynaud's: Baseline, Mean [4]: 2.733 | SHAQ VAS Raynaud's: Baseline, Median [4]: 1.400 | SHAQ VAS Raynaud's: Change from Baseline, Mean [4]: −0.414 | SHAQ VAS Raynaud's: Change from Baseline, Median [4]: −0.100 | SHAQ VAS Raynaud's: Day 12, Mean [4]: 2.319 | SHAQ VAS Raynaud's: Day 12, Median [4]: 2.600
